Here are results for 14 compounds from ChEMBL document CHEMBL1909046, “DrugMatrix in vitro pharmacology data”.

The target in one test is Acetylcholinesterase (Homo sapiens, UniProt P22303). Briefly: DRUGMATRIX: Acetylcholinesterase enzyme inhibition (substrate: acetylthiocholine). The format is cell-based, HEK293. As to conditions: Not Active = under 50% inhibition at 10 µM; for IC50: hek293.
For test [1], the target named is Mitogen-activated protein kinase 3 (Homo sapiens, UniProt P27361). Briefly: DRUGMATRIX: Protein Serine/Threonine Kinase, ERK1 enzyme inhibition (substrate: Myelin Basic Protein). The settings on record: Not Active = under 50% inhibition at 10 µM. Set-up: species or system Escherichia coli.
Test [2] addresses 5-hydroxytryptamine receptor 4 (Cavia porcellus, UniProt O70528). The test is classed as cell membranes, Dunkin-Hartley, Striatum, Membrane.
The target of test [3] is Platelet-activating factor receptor (Homo sapiens, UniProt P25105). The test is classed as tissue-based. Also: in other assays of this panel Not Active means under 50% inhibition at 10 µM.
In test [4] the target is T1, Angiotensin-converting enzyme (Oryctolagus cuniculus, UniProt P12822).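 Also: enzymatic inhibition of angiotensin-converting enzyme measured with FAPGG as the substrate; in other assays of this panel Not Active means under 50% inhibition at 10 µM.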
T1 sequence (P12822 whole entry): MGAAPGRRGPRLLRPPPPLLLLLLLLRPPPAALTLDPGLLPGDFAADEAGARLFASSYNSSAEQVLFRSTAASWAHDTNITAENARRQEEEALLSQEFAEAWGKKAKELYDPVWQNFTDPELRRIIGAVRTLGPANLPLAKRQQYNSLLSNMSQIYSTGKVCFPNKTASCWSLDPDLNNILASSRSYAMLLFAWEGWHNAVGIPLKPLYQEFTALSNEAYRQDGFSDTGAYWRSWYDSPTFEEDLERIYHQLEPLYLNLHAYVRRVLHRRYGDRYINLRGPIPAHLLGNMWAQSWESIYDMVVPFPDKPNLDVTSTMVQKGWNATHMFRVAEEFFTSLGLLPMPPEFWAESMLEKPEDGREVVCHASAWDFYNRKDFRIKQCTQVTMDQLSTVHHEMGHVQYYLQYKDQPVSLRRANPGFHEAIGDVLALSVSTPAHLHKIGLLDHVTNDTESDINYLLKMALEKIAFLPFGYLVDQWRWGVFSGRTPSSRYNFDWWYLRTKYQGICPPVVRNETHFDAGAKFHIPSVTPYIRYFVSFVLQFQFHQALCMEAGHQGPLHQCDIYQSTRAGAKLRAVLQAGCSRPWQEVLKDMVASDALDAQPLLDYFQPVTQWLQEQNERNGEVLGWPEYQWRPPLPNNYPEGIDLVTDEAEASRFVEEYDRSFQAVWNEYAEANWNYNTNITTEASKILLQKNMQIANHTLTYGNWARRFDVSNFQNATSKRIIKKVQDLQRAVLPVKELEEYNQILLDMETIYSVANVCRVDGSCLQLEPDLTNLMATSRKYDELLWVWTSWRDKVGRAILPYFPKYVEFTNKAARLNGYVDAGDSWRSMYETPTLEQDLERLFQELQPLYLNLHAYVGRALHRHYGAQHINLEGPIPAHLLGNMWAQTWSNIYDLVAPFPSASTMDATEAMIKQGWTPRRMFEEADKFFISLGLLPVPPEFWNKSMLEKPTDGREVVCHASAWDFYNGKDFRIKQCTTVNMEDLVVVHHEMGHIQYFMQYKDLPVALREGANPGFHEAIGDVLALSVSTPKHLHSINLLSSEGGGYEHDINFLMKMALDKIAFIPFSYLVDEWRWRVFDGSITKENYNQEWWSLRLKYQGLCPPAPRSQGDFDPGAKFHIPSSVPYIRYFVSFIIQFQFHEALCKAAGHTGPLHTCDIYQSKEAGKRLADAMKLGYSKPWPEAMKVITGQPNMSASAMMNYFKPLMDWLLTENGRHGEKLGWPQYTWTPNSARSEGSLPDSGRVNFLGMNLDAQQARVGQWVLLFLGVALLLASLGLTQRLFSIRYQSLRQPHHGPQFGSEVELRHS
The test is classed as tissue-based, Lung.

Test [5] has as its target T2, Nitric oxide synthase, inducible (Mus musculus, UniProt P29477).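 Also: inhibition of iNOS enzyme activity measured with L-arginine as substrate; in other assays of this panel Not Active means under 50% inhibition at 10 µM.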
T2 sequence (P29477 whole entry): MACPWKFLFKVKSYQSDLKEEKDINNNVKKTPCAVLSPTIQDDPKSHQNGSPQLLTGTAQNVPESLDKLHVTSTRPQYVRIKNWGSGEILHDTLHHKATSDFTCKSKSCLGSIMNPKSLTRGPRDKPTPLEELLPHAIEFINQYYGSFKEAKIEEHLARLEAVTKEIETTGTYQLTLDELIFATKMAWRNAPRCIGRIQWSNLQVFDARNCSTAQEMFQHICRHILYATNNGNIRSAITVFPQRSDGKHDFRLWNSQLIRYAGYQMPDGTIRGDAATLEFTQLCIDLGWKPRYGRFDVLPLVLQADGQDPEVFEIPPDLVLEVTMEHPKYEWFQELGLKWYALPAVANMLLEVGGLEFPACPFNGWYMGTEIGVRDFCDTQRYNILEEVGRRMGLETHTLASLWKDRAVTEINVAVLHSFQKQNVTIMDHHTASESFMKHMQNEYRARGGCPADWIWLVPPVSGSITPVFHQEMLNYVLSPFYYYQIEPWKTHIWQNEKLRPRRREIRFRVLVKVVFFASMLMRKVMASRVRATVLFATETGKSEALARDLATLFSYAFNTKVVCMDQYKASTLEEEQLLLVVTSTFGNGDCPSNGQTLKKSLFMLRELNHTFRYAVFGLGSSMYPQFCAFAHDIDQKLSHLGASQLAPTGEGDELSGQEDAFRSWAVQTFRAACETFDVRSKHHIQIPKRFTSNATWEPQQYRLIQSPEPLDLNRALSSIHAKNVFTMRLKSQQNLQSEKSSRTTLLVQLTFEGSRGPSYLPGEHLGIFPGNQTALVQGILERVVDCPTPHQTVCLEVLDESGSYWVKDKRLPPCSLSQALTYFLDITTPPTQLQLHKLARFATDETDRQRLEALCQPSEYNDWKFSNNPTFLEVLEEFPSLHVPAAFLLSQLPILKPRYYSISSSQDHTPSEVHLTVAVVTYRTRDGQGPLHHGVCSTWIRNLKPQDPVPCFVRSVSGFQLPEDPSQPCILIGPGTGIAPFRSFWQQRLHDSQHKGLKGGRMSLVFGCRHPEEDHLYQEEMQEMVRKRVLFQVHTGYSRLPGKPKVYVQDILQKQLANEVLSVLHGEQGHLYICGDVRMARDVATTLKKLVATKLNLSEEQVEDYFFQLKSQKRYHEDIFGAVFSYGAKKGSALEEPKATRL
More on the design: species or system Escherichia coli.

The target in the next test is Estrogen receptor beta (Homo sapiens, UniProt Q92731). The settings on record: sf9. Also: in other assays of this panel Not Active means under 50% inhibition at 10 µM.
The target in another test is T3, Leukotriene C4 synthase (Cavia porcellus, UniProt A6XA80).
T3 sequence (A6XA80 whole entry): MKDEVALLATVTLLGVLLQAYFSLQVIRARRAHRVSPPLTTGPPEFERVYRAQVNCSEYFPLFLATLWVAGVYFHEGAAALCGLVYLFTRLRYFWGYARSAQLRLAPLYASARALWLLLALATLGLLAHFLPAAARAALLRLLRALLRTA
The format is tissue-based, Lung.

The structures appear in SMILES notation. pIC50, pKi: −log10 of the molar value.

Chain of 5-hydroxytryptamine receptor 4 (O70528 whole entry): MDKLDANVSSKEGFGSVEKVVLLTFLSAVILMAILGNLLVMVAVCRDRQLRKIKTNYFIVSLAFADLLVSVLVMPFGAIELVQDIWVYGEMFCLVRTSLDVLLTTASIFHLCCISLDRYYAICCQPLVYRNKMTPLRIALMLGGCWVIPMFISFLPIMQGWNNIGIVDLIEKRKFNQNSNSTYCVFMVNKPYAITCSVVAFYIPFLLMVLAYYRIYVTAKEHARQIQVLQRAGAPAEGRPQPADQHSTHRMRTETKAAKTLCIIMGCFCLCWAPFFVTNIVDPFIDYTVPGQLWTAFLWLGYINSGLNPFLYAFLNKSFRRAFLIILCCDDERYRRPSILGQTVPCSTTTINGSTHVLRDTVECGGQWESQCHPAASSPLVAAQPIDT
Chain of Mitogen-activated protein kinase 3 (P27361 whole entry): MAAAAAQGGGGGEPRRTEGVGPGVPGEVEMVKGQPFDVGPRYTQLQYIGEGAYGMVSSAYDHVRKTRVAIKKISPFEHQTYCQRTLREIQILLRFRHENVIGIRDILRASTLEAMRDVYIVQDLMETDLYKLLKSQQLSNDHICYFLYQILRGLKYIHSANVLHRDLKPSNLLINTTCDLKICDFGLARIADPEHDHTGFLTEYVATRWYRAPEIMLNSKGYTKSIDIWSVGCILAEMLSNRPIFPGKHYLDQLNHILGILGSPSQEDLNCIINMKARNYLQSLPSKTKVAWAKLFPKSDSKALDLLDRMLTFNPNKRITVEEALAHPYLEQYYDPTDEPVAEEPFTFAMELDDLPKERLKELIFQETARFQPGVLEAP
Chain of Platelet-activating factor receptor (P25105 whole entry): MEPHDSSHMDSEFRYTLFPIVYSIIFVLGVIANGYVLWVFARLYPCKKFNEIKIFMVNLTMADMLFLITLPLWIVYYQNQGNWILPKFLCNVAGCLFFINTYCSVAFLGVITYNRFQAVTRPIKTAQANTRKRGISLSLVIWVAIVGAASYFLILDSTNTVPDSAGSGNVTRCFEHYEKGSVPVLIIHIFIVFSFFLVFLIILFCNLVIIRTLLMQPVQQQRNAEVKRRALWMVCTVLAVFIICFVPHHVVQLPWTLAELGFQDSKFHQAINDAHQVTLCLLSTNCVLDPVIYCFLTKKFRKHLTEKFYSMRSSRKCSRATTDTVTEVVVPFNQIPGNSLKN
Chain of Estrogen receptor beta (Q92731 whole entry): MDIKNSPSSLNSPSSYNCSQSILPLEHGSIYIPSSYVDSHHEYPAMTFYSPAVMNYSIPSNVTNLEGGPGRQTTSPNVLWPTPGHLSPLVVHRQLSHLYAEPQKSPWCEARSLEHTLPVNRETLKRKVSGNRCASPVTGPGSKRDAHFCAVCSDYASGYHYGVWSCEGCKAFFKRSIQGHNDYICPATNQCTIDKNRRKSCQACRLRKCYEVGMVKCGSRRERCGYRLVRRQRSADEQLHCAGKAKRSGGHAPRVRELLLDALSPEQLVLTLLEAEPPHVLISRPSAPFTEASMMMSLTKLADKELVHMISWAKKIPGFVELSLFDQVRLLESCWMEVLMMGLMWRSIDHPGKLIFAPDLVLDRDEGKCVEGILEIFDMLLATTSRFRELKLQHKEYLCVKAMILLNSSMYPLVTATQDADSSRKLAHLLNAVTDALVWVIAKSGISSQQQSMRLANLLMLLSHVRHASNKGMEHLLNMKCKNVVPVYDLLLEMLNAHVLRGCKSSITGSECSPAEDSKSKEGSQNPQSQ
Chain of Acetylcholinesterase (P22303 whole entry): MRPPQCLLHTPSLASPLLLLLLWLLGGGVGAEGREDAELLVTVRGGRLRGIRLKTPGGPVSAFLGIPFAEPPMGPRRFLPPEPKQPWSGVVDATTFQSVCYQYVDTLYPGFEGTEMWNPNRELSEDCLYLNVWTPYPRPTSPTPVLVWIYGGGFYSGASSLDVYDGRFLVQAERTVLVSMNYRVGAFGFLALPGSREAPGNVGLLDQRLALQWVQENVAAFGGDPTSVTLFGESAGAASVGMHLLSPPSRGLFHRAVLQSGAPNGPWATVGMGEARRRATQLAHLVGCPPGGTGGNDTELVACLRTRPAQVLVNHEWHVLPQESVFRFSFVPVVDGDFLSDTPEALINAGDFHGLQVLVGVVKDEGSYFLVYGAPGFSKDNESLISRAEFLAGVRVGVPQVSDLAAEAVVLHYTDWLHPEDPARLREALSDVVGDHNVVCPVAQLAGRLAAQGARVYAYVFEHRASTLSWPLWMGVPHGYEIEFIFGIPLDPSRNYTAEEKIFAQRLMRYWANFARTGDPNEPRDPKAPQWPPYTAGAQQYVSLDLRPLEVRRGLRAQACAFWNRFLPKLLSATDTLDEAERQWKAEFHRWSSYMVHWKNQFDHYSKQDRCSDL

As to `CCCCC(=O)N(Cc1ccc(-c2ccccc2-c2nnn[nH]2)cc1)[C@H](C(=O)O)C(C)C`, the IC50 entry (at Acetylcholinesterase; in test [1]; in test [2]; in test [3]; in test [4]; in test [5]) was “Not Active” throughout. The IC50 entry against Estrogen receptor beta and against Leukotriene C4 synthase was “Not Active” throughout.
For the compound `O=C(O)COc1ccc(C(=O)c2cccs2)c(Cl)c1Cl`, the IC50 entry (against Acetylcholinesterase; in test [1]; in test [2]; in test [3]; in test [4]; in test [5]) was “Not Active” throughout. The IC50 result against Estrogen receptor beta and at Leukotriene C4 synthase was “Not Active” each time.
On to `CN1[C@@H]2CC[C@H]1C[C@@H](OC(c1ccccc1)c1ccccc1)C2` [BENZTROPINE], for which the IC50 result (on Acetylcholinesterase; in test [1]; in test [2]; in test [3]; in test [4]; in test [5]) was “Not Active” each time. In addition, the IC50 entry on Estrogen receptor beta and on Leukotriene C4 synthase was “Not Active” throughout.
With `C[C@@](Cc1ccc(O)c(O)c1)(NN)C(=O)O.O` [CARBIDOPA], the IC50 result (against Acetylcholinesterase; in test [1]; in test [2]; in test [3]; in test [4]; in test [5]) was “Not Active” throughout. Moreover, the IC50 entry at Leukotriene C4 synthase is on record as “Not Active”.
Consider `CN1CCN(C2=Nc3cc(Cl)ccc3Nc3ccccc32)CC1` [CLOZAPINE], for which the IC50 result (against Acetylcholinesterase; in test [1]; in test [2]; in test [3]; in test [4]; in test [5]) was “Not Active” throughout. The IC50 entry at Estrogen receptor beta and against Leukotriene C4 synthase was “Not Active” in each case.
For `CC(C)NC[C@@H](O)COc1cccc2ccccc12` [DEXPROPRANOLOL], the IC50 entry (against Acetylcholinesterase; in test [1]; in test [2]; in test [3]; in test [4]; in test [5]) was “Not Active” each time. The IC50 result at Estrogen receptor beta and at Leukotriene C4 synthase was “Not Active” each time.
`CC(C)NC[C@H](O)COc1cccc2ccccc12` [LEVOPROPRANOLOL]: the IC50 entry (against Acetylcholinesterase; in test [1]; in test [2]; in test [3]; in test [4]; in test [5]) was “Not Active” in each case. For the same compound, the IC50 result against Estrogen receptor beta and against Leukotriene C4 synthase was “Not Active” in each case.
With `O=C(O)CCCCC1CCSS1` (stereo not drawn) [LIPOIC ACID, ALPHA], the IC50 result (on Acetylcholinesterase; in test [1]; in test [2]; in test [3]; in test [4]; in test [5]) was “Not Active” each time. The IC50 entry against Estrogen receptor beta and at Leukotriene C4 synthase was “Not Active” throughout.
Consider `CN(C)C(=O)C(CCN1CCC(O)(c2ccc(Cl)cc2)CC1)(c1ccccc1)c1ccccc1` [LOPERAMIDE], for which the IC50 entry (against Acetylcholinesterase; in test [1]; in test [2]; in test [3]; in test [4]; in test [5]) was “Not Active” throughout. Further, the IC50 result at Estrogen receptor beta and at Leukotriene C4 synthase was “Not Active” in each case.
In the case of `Clc1ccc(COC(Cn2ccnc2)c2ccc(Cl)cc2Cl)c(Cl)c1` (stereo not drawn) [MICONAZOLE], the pIC50 on Acetylcholinesterase (read-out: IC50) was 4.73. The IC50 entry (in test [1]; in test [2]; in test [3]; in test [4]; in test [5]; at Estrogen receptor beta) was “Not Active” in each case. Also, the IC50 result on Leukotriene C4 synthase is “Not Active”.
With `COC(=O)[C@H]1[C@H]2C[C@@H]3c4[nH]c5cc(OC)ccc5c4CCN3C[C@H]2C[C@@H](OC(=O)c2cc(OC)c(OC)c(OC)c2)[C@@H]1OC` [RESERPINE], the IC50 result (on Acetylcholinesterase; in test [1]; in test [2]; in test [3]; in test [4]; in test [5]) was “Not Active” each time. Besides, on Leukotriene C4 synthase, the IC50 entry is reported as “Not Active”.
In the case of `O=C(O)c1ccccc1O` [SALICYLIC ACID], the IC50 result (at Acetylcholinesterase; in test [1]; in test [2]; in test [3]; in test [4]; in test [5]) was “Not Active” each time. Moreover, the IC50 entry against Leukotriene C4 synthase was “Not Active”.
Consider `C[S+]([O-])c1ccc(-c2nc(-c3ccncc3)c(-c3ccc(F)cc3)[nH]2)cc1` (stereo not drawn) [SB-203580], for which the IC50 result (against Acetylcholinesterase; in test [3]; in test [4]; in test [5]; against Estrogen receptor beta; against Leukotriene C4 synthase) was “Not Active” each time. Further, the pIC50 in test [2] (read-out: IC50) is 4.98. The negative-log Ki (pKi) in test [2] (read-out: Ki) was 5.75.
Turning to `O=C1C[C@@H]2OCC=C3CN4CC[C@]56c7ccccc7N1[C@H]5[C@H]2[C@H]3C[C@H]46` [STRYCHNINE], the IC50 entry (against Acetylcholinesterase; in test [1]; in test [2]; in test [3]; in test [4]; in test [5]) was “Not Active” in each case. At Leukotriene C4 synthase, the IC50 entry is “Not Active”.
